Peptide text beside a SMILES is read from it. * marks the point of attachment. Cbz = O=C(OCc1ccccc1)*
Assays:
human CD34+ cells = assay: Ex vivo transduction of human CD34+ cells by AAV serotype and tyrosine-mutant AAV6 vectors; assay type: cell-based
Description: Human bone marrow CD34^+ and umbilical cord blood CD34^+ cells either were purchased from All-Cells (Berkeley, Calif., USA), or were obtained under an institutional review board-approved protocol, and maintained in either StemSpan SFEM medium ([…] Technologies, Inc, Vancouver, BC, CANADA) or IMDM with 10 ng/mL rhIL6 (PeproTech), 10 ng/mL rhIL3 (PeproTech, Rocky Hill, N.J., USA) and 1 ng/mL rhSCF (R&D Systems, Minneapolis, Minn., USA). CD34^+ cell purity was determined by flow cytometry and was >90%. Mouse HSCs, which were positive for Sca-1 and c-kit and negative for lineage markers (c-kit^+, Sca-1^+, lin^−), were isolated from 4-month-old male C57BL/6 mice as previously reported with slight modification. Briefly, femurs and tibias were obtained from C57BL/6 mice, and bone marrow cells were flushed from the bones with phosphate-buffered saline (PBS). […] APC-conjugated CD117 (c-kit) antibody and Alexa Fluor 700 conjugated Sca-1 antibody (Miltenyi Biotec Inc) were used during fluorescence-activated cell sorting (FACS). […]
Ex vivo transduction of HSCs. […] Mock-infected or infected cells were infused into recipient mice immediately after infection, or examined for transgene expression by fluorescence microscopy or by flow cytometry (Accuri C6; BD Biosciences) 48-72 hrs after infection.

Hep293TT cells = assay: AAV3 vector transduction assay in Hep293TT cells; assay type: cell-based, human
Description: (§1) AAV Vector Transduction Assays. Huh7 or HeLa cells were seeded in 96-well plates at a concentration of 5,000 cells per well in complete DMEM medium. AAV infections were performed in serum- and antibiotic-free DMEM medium. Hep293TT cells were seeded in 96-well plates at a concentration of 10,000 cells per well in complete RPMI medium. The infections were performed in serum- and antibiotic-free RPMI medium. The expression of EGFP was analyzed by direct fluorescence imaging 72 hrs' post-transduction.

HeLa cells [1] = assay: scAAV2 transduction of HeLa cells with MG132 or Tyr23 (positive control); assay type: cell-based, human; settings: MG132 5 μM; Tyr23 200 μM
Description: as §1
Proteasome Inhibitors Increase the Transduction Efficiency of AAV3 Vectors. […] To evaluate whether MG132 can also improve AAV3 trafficking in target cells, Huh7, a well-established human hepatocellular carcinoma cell line (Nakabayashi et al., 1982), and Hep293TT, a recently established human hepatoblastoma cell line (Chen et al., 2009), were either mock-treated or treated with increasing concentrations of MG132. […] Transgene expression was determined by fluorescence microscopy 72 hrs post-transduction.
Previous studies have also shown that inhibition of EGFR-PTK signaling by Tyrphostin 23 (Tyr23), a specific inhibitor of EGFR-PTK (May et al., 1998), modulates the Ub/proteasome pathway, which in turn, facilitates intracellular trafficking and transgene expression mediated by AAV2 vectors (Zhong et al., 2007). […] Transgene expression was determined 72 hr post-transduction.

Huh7 cells = assay: AAV3 vector transduction assay in Huh7 cells; assay type: cell-based, human; settings: increasing concentrations, 2 hr
Description: as §1

HeLa cells [2] = assay: Recombinant AAV2 vector transduction assay in vitro (EGFP imaging); assay type: cell-based, human
Description: Recombinant AAV2 Vector Transduction Assays in Vitro. Approximately 1×10^5 HeLa cells were used for transductions with recombinant AAV2 vectors. The transduction efficiency was measured 48-hr post-transduction by EGFP imaging using fluorescence microscopy. Images from three to five visual fields were analyzed quantitatively by ImageJ analysis software (NIH, Bethesda, Md., USA). Transgene expression was assessed as total area of green fluorescence (pixel^2) per visual field (mean±SD). Analysis of variance (ANOVA) was used to compare between test results and the control and they were determined to be statistically significant.
The transduction efficiency of each of the tyrosine-mutant vectors was analyzed and compared with the WT scAAV2-EGFP vector in HeLa cells in vitro under identical conditions. […] Specifically, the transduction efficiency of Y444F, Y500F, Y730F vectors was ˜8- to 11-fold higher than the WT vector.
In a second study, HeLa cells, either mock-treated or treated with Tyr23, a specific inhibitor of EGFR-PTK, or MG132, a proteasome inhibitor, both known to increase the transduction efficiency of AAV vectors, were mock-infected or infected with the WT or Y730F scAAV2-EGFP vectors.

HEK293 cells = assay: AAV2 vector transduction assay in HEK293 cells (serine mutants, kinase inhibitors); assay type: cell-based, human; settings: 50 μM, 1 hr; 1,000 vgs per cell
Description: Recombinant AAV Vector Transduction Assays In Vitro. HEK293 or monocyte-derived dendritic cells (moDCs), were transduced with AAV2 vectors with 1,000 vgs/cell or 2,000 vgs/cell respectively, and incubated for 48 hr. Alternatively, cells were pretreated with 50 μM of selective serine/threonine kinase inhibitors 2-(2-hydroxyethylamino)-6-aminohexylcarbamic acid tert-butyl ester-9-isopropylpurine (for CaMK-II), anthra[1,9-cd]pyrazol-6(2H)-one, 1,9-pyrazoloanthrone (for JNK), and 4-(4-fluorophenyl)-2-(4-methylsulfinylphenyl)-5-(4-pyridyl)1H-imidazole (for MAPK) (CK59, JNK inhibitor 2, PD 98059, Calbiochem), 1 hr before transduction. Transgene expression was assessed as the total area of green fluorescence (pixel2) per visual field (mean±SD) as described previously (Markusic et al., 2011; Jayandharan et al., 2011). Analysis of variance was used to compare test results and the control, which were determined to be statistically significant.

[3] = system: monocyte-derived dendritic cells (moDCs); assay: AAV2 vector transduction of monocyte-derived dendritic cells (moDCs); assay type: cell-based, human; settings: 50 μM, WT scAAV2-EGFP, 48 hrs p.i.
Description: Cells and Antibodies. HEK293, HeLa and NIH3T3 cells were obtained from the American Type Culture Collection and maintained as monolayer cultures in DMEM (Invitrogen, Inc.) supplemented with 10% FBS (Sigma-Aldrich Co.) and antibiotics (Lonza, Inc.). Leukapheresis-derived peripheral blood mononuclear cells (PBMCs) (AllCells) were purified on Ficoll-Paque (GEHeathCare), resuspended in serum-free AIM-V medium (Lonza, Inc.), and semi-adherent cell fractions were incubated for 7 days with recombinant human IL-4 (500 U/mL) and GM-CSF (800 U/mL) (R&D Systems). Cell maturation was initiated with a cytokine mixture including 10 ng/mL TNF-α, 10 ng/mL IL-1, 10 ng/mL IL-6, and 1 mg/mL PGE2 (R&D Systems) for 48 hrs. Prior to EGFP expression cells were characterized for co-stimulatory molecules expression to ensure that they met the typical phenotype of mature dendritic cells (mDC) (CD80, RPE, murine IgG1; CD83, RPE, murine IgG1; CD86, FITC, murine IgG1; Invitrogen, Inc.). (Jayandharan et al., 2011)
Recombinant AAV Vector Transduction Assays In Vitro. […] Transgene expression was assessed as the total area of green fluorescence (pixel2) per visual field (mean±SD) as described previously (Markusic et al., 2011; Jayandharan et al., 2011). Analysis of variance was used to compare test results and the control, which were determined to be statistically significant.

**Q.** For “epidermal growth factor: epidermal growth factor”, which “effect on transduction efficiency of AAV6 vectors in CD34+ cells” value (human CD34+ cells) is on record?
**A.** no effect

**Q.** What does the source list for `CC(C)C[C@@H](C=O)NC(=O)[C@H](CC(C)C)NC(=O)[C@H](CC(C)C)NC(=O)OCc1ccccc1` [MG132] (Cbz-Leu-Leu-Leu-aldehyde)?
**A.** amounts of internalized viral DNA in presence or absence of inhibitor (Hep293TT cells): no significant difference; transduction efficiency of scAAV3 vectors after treatment (Hep293TT cells; 2 hr treatment): dose-dependent increase; transduction efficiency of scAAV2 vectors after pretreatment (HeLa cells [1]): significantly increased; transduction efficiency of scAAV3 vectors after treatment (Huh7 cells): dose-dependent increase; increase in transduction efficiency of WT scAAV2-EGFP by pretreatment (HeLa cells [2]): ~6 fold

**Q.** Which “transduction efficiency of ssAAV2 and scAAV2 vectors after inhibitor pre-treatment” value (HEK293 cells) does the source give for `C[S+]([O-])c1ccc(-c2nc(-c3ccc(F)cc3)c(-c3ccncc3)[nH]2)cc1` (centres unmarked) [p38 MAPK inhibitor, 4-(4-fluorophenyl)-2-(4-methylsulfinylphenyl)-5-(4-pyridyl)1H-imidazole] here?
**A.** most effective

**Q.** For `O=C1c2ccccc2-c2n[nH]c3cccc1c23` [JNK inhibitor, anthra[1,9-cd]pyrazol-6(2H)-one, 1,9-pyrazoloanthrone], which “increase of EGFP expression levels by inhibitor pre-treatment” value [3] is on record?
**A.** ~2 fold

From patent US12358954B2, “Capsid-modified rAAV vector compositions and methods therefor” (priority 2012, dated 2025)
